# According to ChEMBL document CHEMBL1201862, “PubChem BioAssay data set” (2004):
#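 Method: 48-hour compound exposure of cells in 96-well plates, five concentrations, linear interpolation of endpoints. Abbreviation: GI50, concentration required for 50% inhibition of growth.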 The source made the active and inactive calls. No stated cut-off is given here; in the data, active = GI50 up to about 1.1 µM and inactive = higher.
# Tests used:
# Assay in all cases: NCI anticancer screen, dose series, 48 h
# [1] = test system: Malme-3M
# [2] = test system: COLO 205
# [3] = test system: HT-29
# [4] = test system: SF-268
# [5] = test system: OVCAR-3
# [6] = test system: UACC-62
# [7] = test system: HOP-92
# [8] = test system: IGROV-1
# [9] = test system: UACC-257
# [10] = test system: SK-MEL-28
# [11] = test system: LOX IMVI
# [12] = test system: SNB-19
# [13] = test system: SK-OV-3
# [14] = test system: M14
# [15] = test system: SW-620
# [16] = test system: OVCAR-4
# [17] = test system: HCT-116
# [18] = test system: K562
# [19] = test system: DMS-273
# [20] = test system: SN12C
# [21] = test system: RXF 393
# [22] = test system: NCI-H460
# [23] = test system: SR
# [24] = test system: XF498
# [25] = test system: M19-MEL
# [26] = test system: LXFL 529
# [27] = test system: OVCAR-5
# [28] = test system: DLD-1
# [29] = test system: RPMI-8226
# [30] = test system: ACHN
# [31] = test system: U-251
# [32] = test system: SK-MEL-5
# [33] = test system: KM-20L2
# [34] = test system: SK-MEL-2
# [35] = test system: UO-31
# [36] = test system: HL-60
# [37] = test system: RXF 631
# [38] = test system: KM12
# [39] = test system: A549
# [40] = test system: A498
# [41] = test system: CAKI-1
# [42] = test system: SF-295
# [43] = test system: SNB-75
# [44] = test system: TK-10
# [45] = test system: EKVX
# [46] = test system: DMS-114
# [47] = test system: SNB-78
# [48] = test system: HOP-62
# [49] = test system: MOLT-4
# [50] = test system: NCI-H522
# [51] = test system: NCI-H226
# [52] = test system: NCI-H23
# [53] = test system: HCC 2998
# [54] = test system: CCRF-CEM
# [55] = test system: SF-539
# [56] = test system: HOP-18
# [57] = test system: 786-0
# [58] = test system: OVCAR-8
# [59] = test system: HCT-15
smiles,measurement,setting,value
CCC(C)C(=O)c1c(O)c(C/C=C(\C)CCC=C(C)C)c(O)c2c(C(O)CC)cc(=O)oc12 (centres undefined),GI50,[1],2240 nM (inactive)
same,GI50,[2],1710 nM (inactive)
same,GI50,[3],1270 nM (inactive)
same,GI50,[4],1900 nM (inactive)
same,GI50,[5],2690 nM (inactive)
same,GI50,[6],1300 nM (inactive)
same,GI50,[7],1630 nM (inactive)
same,GI50,[8],2680 nM (inactive)
same,GI50,[9],2210 nM (inactive)
same,GI50,[10],1680 nM (inactive)
same,GI50,[11],2740 nM (inactive)
same,GI50,[12],4230 nM (inactive)
same,GI50,[13],4410 nM (inactive)
same,GI50,[14],3310 nM (inactive)
same,GI50,[15],1980 nM (inactive)
same,GI50,[16],2110 nM (inactive)
same,GI50,[17],867 nM (active)
same,GI50,[18],679 nM (active)
same,GI50,[19],1580 nM (inactive)
same,GI50,[20],1710 nM (inactive)
same,GI50,[21],1790 nM (inactive)
same,GI50,[22],2300 nM (inactive)
same,GI50,[23],1310 nM (inactive)
same,GI50,[24],1820 nM (inactive)
same,GI50,[25],2280 nM (inactive)
same,GI50,[26],1160 nM (inactive)
same,GI50,[27],5280 nM (inactive)
same,GI50,[28],1550 nM (inactive)
same,GI50,[29],1090 nM (active)
same,GI50,[30],2200 nM (inactive)
same,GI50,[31],1510 nM (inactive)
same,GI50,[32],1190 nM (inactive)
same,GI50,[33],1230 nM (inactive)
same,GI50,[34],1620 nM (inactive)
same,GI50,[35],2240 nM (inactive)
same,GI50,[36],1460 nM (inactive)
same,GI50,[37],1740 nM (inactive)
same,GI50,[38],2510 nM (inactive)
same,GI50,[39],2720 nM (inactive)
same,GI50,[40],2050 nM (inactive)
same,GI50,[41],2230 nM (inactive)
same,GI50,[42],2810 nM (inactive)
same,GI50,[43],1490 nM (inactive)
same,GI50,[44],3810 nM (inactive)
same,GI50,[45],3600 nM (inactive)
same,GI50,[46],498 nM (active)
same,GI50,[47],3890 nM (inactive)
same,GI50,[48],1950 nM (inactive)
same,GI50,[49],1590 nM (inactive)
same,GI50,[50],871 nM (active)
same,GI50,[51],2530 nM (inactive)
same,GI50,[52],1560 nM (inactive)
same,GI50,[53],358 nM (active)
same,GI50,[54],693 nM (active)
same,GI50,[55],1670 nM (inactive)
CCN1CCC(O)(/C=C/c2ccccc2)C(C(=O)/C=C/c2ccccc2)C1 (centres undefined),GI50,[1],2260 nM (inactive)
same,GI50,[2],1770 nM (inactive)
same,GI50,[3],1760 nM (inactive)
same,GI50,[4],2540 nM (inactive)
same,GI50,[5],3100 nM (inactive)
same,GI50,[6],1710 nM (inactive)
same,GI50,[7],2640 nM (inactive)
same,GI50,[8],1850 nM (inactive)
same,GI50,[9],1980 nM (inactive)
same,GI50,[10],1890 nM (inactive)
same,GI50,[12],9980 nM (inactive)
same,GI50,[13],7850 nM (inactive)
same,GI50,[14],2090 nM (inactive)
same,GI50,[15],1690 nM (inactive)
same,GI50,[16],3270 nM (inactive)
same,GI50,[56],5640 nM (inactive)
same,GI50,[17],1630 nM (inactive)
same,GI50,[19],1680 nM (inactive)
same,GI50,[20],1790 nM (inactive)
same,GI50,[21],1670 nM (inactive)
same,GI50,[22],1950 nM (inactive)
same,GI50,[57],1750 nM (inactive)
same,GI50,[24],5650 nM (inactive)
same,GI50,[58],1890 nM (inactive)
same,GI50,[25],1990 nM (inactive)
same,GI50,[26],1870 nM (inactive)
same,GI50,[27],3060 nM (inactive)
same,GI50,[28],2080 nM (inactive)
same,GI50,[30],1720 nM (inactive)
same,GI50,[31],2150 nM (inactive)
same,GI50,[32],3220 nM (inactive)
same,GI50,[33],2620 nM (inactive)
same,GI50,[34],2650 nM (inactive)
same,GI50,[35],10100 nM (inactive)
same,GI50,[36],1640 nM (inactive)
same,GI50,[37],4100 nM (inactive)
same,GI50,[38],1800 nM (inactive)
same,GI50,[39],4860 nM (inactive)
same,GI50,[40],6210 nM (inactive)
same,GI50,[41],2710 nM (inactive)
same,GI50,[59],1870 nM
same,GI50,[42],2960 nM (inactive)
same,GI50,[43],6400 nM (inactive)
same,GI50,[44],2610 nM (inactive)
same,GI50,[45],3330 nM (inactive)
same,GI50,[46],2080 nM (inactive)
same,GI50,[47],3330 nM (inactive)
same,GI50,[48],13900 nM (inactive)
same,GI50,[49],2210 nM (inactive)
same,GI50,[50],1730 nM (inactive)
same,GI50,[51],3020 nM (inactive)
same,GI50,[52],2930 nM (inactive)
same,GI50,[53],1960 nM (inactive)
same,GI50,[55],1910 nM (inactive)
COC(=O)c1ccc2n[se]nc2c1,GI50,[1],> 100000 nM (inactive)
same,GI50,[3],> 100000 nM (inactive)
same,GI50,[4],> 100000 nM (inactive)
same,GI50,[6],> 100000 nM (inactive)
same,GI50,[8],> 100000 nM (inactive)
same,GI50,[9],> 100000 nM (inactive)
same,GI50,[10],> 100000 nM (inactive)
same,GI50,[11],> 100000 nM (inactive)
same,GI50,[12],> 100000 nM (inactive)
same,GI50,[13],> 100000 nM (inactive)
same,GI50,[14],> 100000 nM (inactive)
same,GI50,[15],> 100000 nM (inactive)
same,GI50,[16],> 100000 nM (inactive)
same,GI50,[56],> 100000 nM (inactive)
same,GI50,[17],> 100000 nM (inactive)
same,GI50,[18],> 100000 nM (inactive)
same,GI50,[19],> 100000 nM (inactive)
same,GI50,[20],> 100000 nM (inactive)
same,GI50,[21],> 100000 nM (inactive)
same,GI50,[22],> 100000 nM (inactive)
same,GI50,[23],> 100000 nM (inactive)
same,GI50,[57],> 100000 nM (inactive)
same,GI50,[24],> 100000 nM (inactive)
same,GI50,[58],> 100000 nM (inactive)
same,GI50,[25],> 100000 nM (inactive)
same,GI50,[26],> 100000 nM (inactive)
same,GI50,[27],> 100000 nM (inactive)
same,GI50,[28],> 100000 nM (inactive)
same,GI50,[29],> 100000 nM (inactive)
same,GI50,[30],> 100000 nM (inactive)
same,GI50,[31],> 100000 nM (inactive)
same,GI50,[32],> 100000 nM (inactive)
same,GI50,[33],> 100000 nM (inactive)
same,GI50,[34],> 100000 nM (inactive)
same,GI50,[35],> 100000 nM (inactive)
same,GI50,[36],> 100000 nM (inactive)
same,GI50,[37],> 100000 nM (inactive)
same,GI50,[38],> 100000 nM (inactive)
same,GI50,[39],> 100000 nM (inactive)
same,GI50,[40],> 100000 nM (inactive)
same,GI50,[41],> 100000 nM (inactive)
same,GI50,[59],> 100000 nM
same,GI50,[42],> 100000 nM (inactive)
same,GI50,[43],83600 nM (inactive)
same,GI50,[44],> 100000 nM (inactive)
same,GI50,[45],71000 nM (inactive)
same,GI50,[46],> 100000 nM (inactive)
same,GI50,[47],> 100000 nM (inactive)
same,GI50,[48],> 100000 nM (inactive)
same,GI50,[49],> 100000 nM (inactive)
same,GI50,[50],> 100000 nM (inactive)
same,GI50,[52],> 100000 nM (inactive)
same,GI50,[53],> 100000 nM (inactive)
same,GI50,[54],> 100000 nM (inactive)
same,GI50,[55],> 100000 nM (inactive)
